From US4492693A, “Benzothienylglycyl cephalosporin derivatives” (priority 1983, dated 1985)
Read-outs that look alike come from different tables or passages of the source.

Legend:
Assay type in all cases: cell-based
Strep. D = experiment: Agar Dilution MIC (Table I); settings: for MIC: read-out: Agar Dilution MIC
Text: (§1) A typical and preferred compound provided by this invention is 7-(3-benzothienyl)glycylamido-3-methyl-3-cephem-4-carboxylic acid, the compound illustrated in Example 9. The antibacterial activity of this compound has been determined in standard in vitro agar dilution assays against a variety of gram positive and gram negative microorganism. The following Tables present typical minimum inhibitory concentrations (MIC's) in μg/ml for several compounds of the invention when evaluated against the indicated microorganisms. MIC's for several known compounds are also presented for comparison.
Agar Dilution MIC (μg/ml)

Klebsiella = experiment: Agar Dilution MIC (Table I); settings: for MIC: Klebsiella, read-out: Agar Dilution MIC
E. coli = experiment: Agar Dilution MIC (Table I); settings: Escherichia coli
Staph. epi [1] = experiment: Agar Dilution MIC (Table I); settings: read-out: Agar Dilution MIC
Staph. aureus [2] = experiment: Agar Dilution MIC (Table I); settings: Staphylococcus aureus
Strep. PN = experiment: Agar Dilution MIC (Table I); settings: strain PARK
Bacteroides corrodens = experiment: Susceptibility of Anaerobic Bacteroides Isolates by the Agar-Dilution Method (Table III); settings: Eikenella corrodens; strain 1874; readings 24 hrs. after incubation
Text: as §1
(§2) Susceptibility of Anaerobic Bacteroides Isolates by the
(§3) Agar-Dilution Method MIC (μg/ml) readings 24 hrs. after incubation

Bacteroides fragilis = experiment: as above; settings: 24 h
Text: as §1, §2, §3

[3] = test system: Bacteroides thetaiotaomicron; experiment: as above; settings: 24 h
Text: as §1, §2, §3

H. influ. = experiment: Agar Dilution MIC (Table I); settings: read-out: Agar Dilution MIC
Strep. A = experiment: Agar Dilution MIC (Table I); settings: strain C203; read-out: Agar Dilution MIC
Staph. epi [4] = experiment: Expanded Spectrum MIC (Table II)
Text: as §1
(§4) Expanded Spectrum MIC (μg/ml)

Staph. aureus [5] = experiment: Expanded Spectrum MIC (Table II); settings: Staphylococcus aureus
Text: as §1, §4

H. influenzae = experiment: Expanded Spectrum MIC (Table II); settings: Haemophilus influenzae
Text: as §1, §4

[6] = strain V41, read-out: Agar Dilution MIC
[7] = strain X1.1, read-out: Agar Dilution MIC
[8] = strain X400, read-out: Agar Dilution MIC
[9] = strain 9, readings 24 hrs. after incubation
[10] = strain 103, readings 24 hrs. after incubation
[11] = strain 104, readings 24 hrs. after incubation
[12] = strain 106, readings 24 hrs. after incubation
[13] = strain 107, readings 24 hrs. after incubation
[14] = strain 108, readings 24 hrs. after incubation
[15] = strain 110, readings 24 hrs. after incubation
[16] = strain 111, readings 24 hrs. after incubation
[17] = strain 1877, readings 24 hrs. after incubation
[18] = strain 1438, readings 24 hrs. after incubation
[19] = strain 1900A, readings 24 hrs. after incubation

CC1=C(C(=O)O)N2C(=O)C(NC(=O)[C@H](N)c3csc4ccc(F)cc34)C2SC1 (stereo partly drawn) [Ex. 18, D-7-(5-Fluoro-3-benzothienyl)glycylamido-3-methyl-3-cephem-4-carboxylic acid]
4 µg/mL: MIC (Klebsiella; strain X26) | MIC (Staph. epi [1]; strain 222) | MIC (H. influ.; strain C.L.) | MIC (Staph. epi [4]; strain 269) | MIC (Staph. epi [4]; strain 270)
0.25 µg/mL: MIC (Strep. A) | MIC (H. influenzae; strain 1683)
32 µg/mL: MIC [3, 19]
1 µg/mL: MIC (Staph. aureus [2]; [7]) | MIC (Strep. PN) | MIC (H. influ.; strain 76) | MIC (Staph. epi [4]; strain 219) | MIC (Staph. epi [4]; strain 286) | MIC (Staph. aureus [5]; strain S224) | MIC (Staph. aureus [5]; strain S225) | MIC (Staph. aureus [5]; strain S228) | MIC (Staph. aureus [5]; strain S230) | MIC (Staph. aureus [5]; strain S231) | MIC (H. influenzae; strain 76) | MIC (H. influenzae; strain 105) | MIC (H. influenzae; strain 158) | MIC (H. influenzae; strain 164) | MIC (H. influenzae; strain 169) | MIC (H. influenzae; strain 171) | MIC (H. influenzae; strain 312) | MIC (H. influenzae; strain 1930) | MIC (H. influenzae; strain 4842) | MIC (H. influenzae; strain M370) | MIC (H. influenzae; strain M371)
8 µg/mL: MIC (Staph. epi [1]; strain EPI1) | MIC (Staph. aureus [2]; [6]) | MIC (Bacteroides fragilis; [9]) | MIC (Staph. epi [4]; strain EPI1)
64 µg/mL: MIC (E. coli; strain EC14) | MIC (E. coli; strain TEM) | MIC (Staph. aureus [2]; [8]) | MIC (Bacteroides corrodens) | MIC (Bacteroides fragilis; [10]) | MIC (H. influenzae; strain M366) | MIC (H. influenzae; strain R465) | MIC (H. influenzae; strain STEL)
2 µg/mL: MIC (Staph. epi [4]; strain 285) | MIC (Staph. aureus [5]; strain S226) | MIC (Staph. aureus [5]; strain S227) | MIC (Staph. aureus [5]; strain S229) | MIC (Staph. aureus [5]; strain S234) | MIC (Staph. aureus [5]; strain S237) | MIC (Staph. aureus [5]; strain S238) | MIC (Staph. aureus [5]; strain S239) | MIC (H. influenzae; strain C.L.) | MIC (H. influenzae; strain HESS)
128 µg/mL: MIC (Strep. D; strain 2041) | MIC (Strep. D; strain X66) | MIC (Klebsiella; strain KAE) | MIC (Klebsiella; strain X68) | MIC (E. coli; strain N10) | MIC (Bacteroides fragilis; [16])
16 µg/mL: MIC (Bacteroides fragilis; [11]) | MIC (Bacteroides fragilis; [12]) | MIC (Bacteroides fragilis; [13]) | MIC (Bacteroides fragilis; [14]) | MIC (Bacteroides fragilis; [15]) | MIC (Bacteroides fragilis; [17]) | MIC [3, 18]

CC1=C(C(=O)O)N2C(=O)C(NC(=O)[C@H](N)c3csc4c(F)cccc34)C2SC1 (stereo partly drawn) [Ex. 20, D-7-(7-Fluoro-3-benzothienyl)glycylamido-3-methyl-3-cephem-4-carboxylic acid]
0.125 µg/mL: MIC (Strep. A)
8 µg/mL: MIC (Staph. aureus [2]; read-out: Agar Dilution MIC, strain S13E) | MIC (Bacteroides fragilis; [11]) | MIC (Bacteroides fragilis; [14]) | MIC (Staph. epi [4]; strain 270) | MIC (H. influenzae; strain HESS)
32 µg/mL: MIC (Bacteroides fragilis; [13]) | MIC (Bacteroides fragilis; [15]) | MIC [3, 19]
128 µg/mL: MIC (Strep. D) | Agar Dilution MIC (Strep. D; strain 2041) | MIC (Klebsiella) | Agar Dilution MIC (Klebsiella; strain X68) | MIC (E. coli; strain EC14) | MIC (E. coli; strain N10) | MIC (E. coli; strain TEM) | MIC (Staph. aureus [2]; [8]) | MIC (Bacteroides fragilis; [16])
2 µg/mL: MIC (Staph. epi [1]; strain 222) | MIC (Staph. epi [4]; strain 219) | MIC (Staph. aureus [5]; strain S224) | MIC (Staph. aureus [5]; strain S225) | MIC (Staph. aureus [5]; strain S226) | MIC (Staph. aureus [5]; strain S227) | MIC (Staph. aureus [5]; strain S228) | MIC (Staph. aureus [5]; strain S229) | MIC (Staph. aureus [5]; strain S230) | MIC (Staph. aureus [5]; strain S234) | MIC (Staph. aureus [5]; strain S237) | MIC (Staph. aureus [5]; strain S239) | MIC (H. influenzae; strain 105) | MIC (H. influenzae; strain 158) | MIC (H. influenzae; strain 164) | MIC (H. influenzae; strain 171) | MIC (H. influenzae; strain 4842) | MIC (H. influenzae; strain M370) | MIC (H. influenzae; strain M371)
4 µg/mL: MIC (Klebsiella; strain X26) | MIC (Staph. epi [1]; strain EPI1) | MIC (H. influ.; strain C.L.) | MIC (Staph. epi [4]; strain 269) | MIC (Staph. epi [4]; strain 285) | MIC (Staph. aureus [5]; strain S238) | MIC (H. influenzae; strain 169) | MIC (H. influenzae; strain 312) | MIC (H. influenzae; strain 1930)
1 µg/mL: MIC (Staph. epi [4]; strain 286) | MIC (Staph. aureus [5]; strain S231) | MIC (H. influenzae; strain 76) | MIC (H. influenzae; strain 1683)
16 µg/mL: MIC (Staph. aureus [2]; [6]) | MIC (Bacteroides fragilis; [9]) | MIC (Bacteroides fragilis; [12]) | MIC (Bacteroides fragilis; [17]) | MIC [3, 18] | MIC (Staph. epi [4]; strain EPI1) | MIC (H. influenzae; strain C.L.)
0.5 µg/mL: MIC (Staph. aureus [2]; [7]) | MIC (Strep. PN) | MIC (H. influ.; strain 76)
64 µg/mL: MIC (Bacteroides corrodens) | MIC (Bacteroides fragilis; [10]) | MIC (H. influenzae; strain M366) | MIC (H. influenzae; strain R465) | MIC (H. influenzae; strain STEL)
